Source: patent US20230167073A1 (Teijin Pharma Limited, priority 2020, published 2023)

The compounds below were run against T1, Human TRPC6 (Homo sapiens, UniProt Q9Y210) (assay: Evaluation of TRPC6 channel inhibitory activity (1), FLIPR Calcium 5 Assay Kit, OAG stimulation (Compound Nos. 1-1293)). Settings: Human TRPC6 stably-expressing cells, OAG 30 μM, FLIPR Calcium 5 Assay Kit; read-out: Inhibitory activity (pIC50 class) (converted).
T1 construct: expressed in transfected cells
T1 sequence (Q9Y210 1-931): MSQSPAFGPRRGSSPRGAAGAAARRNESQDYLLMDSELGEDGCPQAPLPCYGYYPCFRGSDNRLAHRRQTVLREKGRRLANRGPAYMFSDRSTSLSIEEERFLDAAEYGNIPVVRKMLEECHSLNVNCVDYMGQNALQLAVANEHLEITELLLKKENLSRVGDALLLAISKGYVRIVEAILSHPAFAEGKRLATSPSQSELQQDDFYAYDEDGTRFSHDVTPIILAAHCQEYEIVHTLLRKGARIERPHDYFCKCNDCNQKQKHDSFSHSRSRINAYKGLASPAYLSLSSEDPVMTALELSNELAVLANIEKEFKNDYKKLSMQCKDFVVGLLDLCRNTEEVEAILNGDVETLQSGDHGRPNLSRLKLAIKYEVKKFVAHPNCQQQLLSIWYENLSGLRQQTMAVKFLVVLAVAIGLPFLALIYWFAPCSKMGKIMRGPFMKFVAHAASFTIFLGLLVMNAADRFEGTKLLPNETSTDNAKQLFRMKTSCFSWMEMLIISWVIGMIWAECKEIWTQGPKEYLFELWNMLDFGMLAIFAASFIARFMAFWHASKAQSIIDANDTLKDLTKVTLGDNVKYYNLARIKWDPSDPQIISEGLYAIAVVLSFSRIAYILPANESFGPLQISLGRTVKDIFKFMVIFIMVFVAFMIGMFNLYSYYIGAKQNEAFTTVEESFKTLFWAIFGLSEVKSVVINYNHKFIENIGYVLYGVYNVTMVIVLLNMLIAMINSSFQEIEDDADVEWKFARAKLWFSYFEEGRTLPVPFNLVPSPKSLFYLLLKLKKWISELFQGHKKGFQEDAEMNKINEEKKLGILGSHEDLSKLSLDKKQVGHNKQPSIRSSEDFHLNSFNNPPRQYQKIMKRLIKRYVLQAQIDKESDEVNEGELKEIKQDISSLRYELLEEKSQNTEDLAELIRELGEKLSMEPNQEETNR
Assay type: cell-based
Summary of the method: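 The FLIPR signal is maximum fluorescence after 30 μM OAG minus minimum before compound, measured in a human TRPC6 stable line loaded with Calcium 5 dye. Compounds were preincubated 20 min. pIC50 came from four-parameter logistic fitting of inhibition rates and is given as symbol ranges.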

| SMILES | IC50 [nM] |
| --- | --- |
| Cn1nc(-c2ccccn2)cc1Oc1cc(C#N)ccc1-c1cccn2c(CN)nnc12 [compound 617, 4-[3-(aminomethyl)-[1,2,4]triazolo[4,3-a]pyridin-8-yl]-3-(2-methyl-5-pyridin-2-ylpyrazol-3-yl)oxybenzonitrile] | 10 to 1000 |
| Cn1nc(C2CC2)cc1Oc1cc(C#N)ccc1-c1ccc(CN)c(C(=O)O)n1 [compound 618, 3-(aminomethyl)-6-[4-cyano-2-(5-cyclopropyl-2-methylpyrazol-3-yl)oxyphenyl]pyridine-2-carboxylic acid] | 10 to 1000 |
| N#Cc1ccc(-c2ncc(CCN)cn2)c(Oc2cnnc(N3CCCCC3)c2)c1 [compound 619, 4-[5-(2-aminoethyl)pyrimidin-2-yl]-3-(6-piperidin-1-ylpyridazin-4-yl)oxybenzonitrile] | < 10 |
| N#Cc1ccc(-c2ncc(CCN)cn2)c(Oc2cnnc(N3CCOCC3)c2)c1 [compound 620, 4-[5-(2-aminoethyl)pyrimidin-2-yl]-3-(6-morpholin-4-ylpyridazin-4-yl)oxybenzonitrile] | 10 to 1000 |
| Cn1nc(N2CCCCC2)cc1Oc1cc(C#N)ccc1-c1ccc(CN)cn1 [compound 621, 4-[5-(aminomethyl)pyridin-2-yl]-3-(2-methyl-5-piperidin-1-ylpyrazol-3-yl)oxybenzonitrile] | < 10 |
| Cn1nc(N2CCCC2)cc1Oc1cc(C#N)ccc1-c1ccc(CN)cn1 [compound 622, 4-[5-(aminomethyl)pyridin-2-yl]-3-(2-methyl-5-pyrrolidin-1-ylpyrazol-3-yl)oxybenzonitrile] | < 10 |
| CN(C)c1cc(Oc2cc(C#N)ccc2-c2ccc(CN)cn2)n(C)n1 [compound 623, 4-[5-(aminomethyl)pyridin-2-yl]-3-[5-(dimethylamino)-2-methylpyrazol-3-yl]oxybenzonitrile] | < 10 |
| Cn1nc(N2CCCCC2)cc1Oc1cc(C#N)ccc1-c1ncc(CN)cn1 [compound 624, 4-[5-(aminomethyl)pyrimidin-2-yl]-3-(2-methyl-5-piperidin-1-ylpyrazol-3-yl)oxybenzonitrile] | < 10 |
| Cn1nc(N2CCCC2)cc1Oc1cc(C#N)ccc1-c1ncc(CN)cn1 [compound 625, 4-[5-(aminomethyl)pyrimidin-2-yl]-3-(2-methyl-5-pyrrolidin-1-ylpyrazol-3-yl)oxybenzonitrile] | < 10 |
| CN(C)c1cc(Oc2cc(C#N)ccc2-c2ncc(CN)cn2)n(C)n1 [compound 626, 4-[5-(aminomethyl)pyrimidin-2-yl]-3-[5-(dimethylamino)-2-methylpyrazol-3-yl]oxybenzonitrile] | < 10 |
| Cn1nc(N2CCCCC2)cc1Oc1cc(C#N)ccc1-c1ncc(CCN)cn1 [compound 627, 4-[5-(2-aminoethyl)pyrimidin-2-yl]-3-(2-methyl-5-piperidin-1-ylpyrazol-3-yl)oxybenzonitrile] | < 10 |
| Cn1nc(N2CCCC2)cc1Oc1cc(C#N)ccc1-c1ncc(CCN)cn1 [compound 628, 4-[5-(2-aminoethyl)pyrimidin-2-yl]-3-(2-methyl-5-pyrrolidin-1-ylpyrazol-3-yl)oxybenzonitrile] | < 10 |
| CN(C)c1cc(Oc2cc(C#N)ccc2-c2ncc(CCN)cn2)n(C)n1 [compound 629, 4-[5-(2-aminoethyl)pyrimidin-2-yl]-3-[5-(dimethylamino)-2-methylpyrazol-3-yl]oxybenzonitrile] | < 10 |
| Cc1nc(NC(C)C)cc(Oc2cc(C#N)ccc2-c2ncc(CN)cn2)n1 [compound 630, 4-[5-(aminomethyl)pyrimidin-2-yl]-3-[2-methyl-6-(propan-2-ylamino)pyrimidin-4 yl]oxybenzonitrile] | 10 to 1000 |
| CCNc1cc(Oc2cc(C#N)ccc2-c2ncc(CN)cn2)nc(C)n1 [compound 631, 4-[5-(aminomethyl)pyrimidin-2-yl]-3-[6-(ethylamino)-2-methylpyrimidin-4-yl]oxybenzonitrile] | 10 to 1000 |
| CCCNc1cc(Oc2cc(C#N)ccc2-c2ncc(CN)cn2)nc(C)n1 [compound 632, 4-[5-(aminomethyl)pyrimidin-2-yl]-3-[2-methyl-6-(propylamino)pyrimidin-4-yl]oxybenzonitrile] | 10 to 1000 |

| SMILES | IC50 [nM] |
| --- | --- |
| Cc1nc(NC2CC2)cc(Oc2cc(C#N)ccc2-c2ncc(CN)cn2)n1 [compound 633, 4-[5-(aminomethyl)pyrimidin-2-yl]-3-[6-(cyclopropylamino)-2-methylpyrimidin-4-yl]oxybenzonitrile] | 10 to 1000 |
| Cc1nc(NCC(C)C)cc(Oc2cc(C#N)ccc2-c2ncc(CN)cn2)n1 [compound 634, 4-[5-(aminomethyl)pyrimidin-2-yl]-3-[2-methyl-6-(2-methylpropylamino)pyrimidin-4-yl]oxybenzonitrile] | < 10 |
| Cc1nc(NC2CCOCC2)cc(Oc2cc(C#N)ccc2-c2ncc(CN)cn2)n1 [compound 635, 4-[5-(aminomethyl)pyrimidin-2-yl]-3-[2-methyl-6-(oxan-4 ylamino)pyrimidin-4-yl]oxybenzonitrile] | > 1000 |
| Cc1nc(NCC2CCOCC2)cc(Oc2cc(C#N)ccc2-c2ncc(CN)cn2)n1 [compound 636, 4-[5-(aminomethyl)pyrimidin-2-yl]-3-[2-methyl-6-(oxan-4-ylmethylamino)pyrimidin-4-yl]oxybenzonitrile] | > 1000 |
| Cc1nc(NC(C)(C)C)cc(Oc2cc(C#N)ccc2-c2ncc(CN)cn2)n1 [compound 637, 4-[5-(aminomethyl)pyrimidin-2-yl]-3-[6-(tert-butylamino)-2-methylpyrimidin-4-yl]oxybenzonitrile] | < 10 |
| Cc1cc(Oc2cc(C#N)ccc2-c2cc(CCN)ccn2)cc(N2CCOCC2)n1 [compound 638, 4-[4-(2-aminoethyl)pyridin-2-yl]-3-(2-methyl-6-morpholin-4-ylpyridin-4-yl)oxybenzonitrile] | 10 to 1000 |
| COCCNc1cc(Oc2cc(C#N)ccc2-c2ncc(CN)cn2)nc(C)n1 [compound 639, 4-[5-(aminomethyl)pyrimidin-2-yl]-3-[6-(2-methoxyethylamino)-2-methylpyrimidin-4-yl]oxybenzonitrile] | > 1000 |
| Cc1nc(NCC(F)(F)F)cc(Oc2cc(C#N)ccc2-c2ncc(CN)cn2)n1 [compound 640, 4-[5-(aminomethyl)pyrimidin-2-yl]-3-[2-methyl-6-(2,2,2-trifluoroethylamino)pyrimidin-4-yl]oxybenzonitrile] | 10 to 1000 |
| Cn1nc(C2CC2)cc1Oc1cc(C#N)ccc1-c1ccc(CN)n2cnnc12 [compound 641, 4-[5-(aminomethyl)-[1,2,4]triazolo[4,3-a]pyridin-8-yl]-3-(5-cyclopropyl-2-methylpyrazol-3-yl)oxybenzonitrile] | 10 to 1000 |
| Cn1nc(-c2ccccn2)cc1Oc1cc(C#N)ccc1-c1cc(CN)ccn1 [compound 642, 4-[4-(aminomethyl)pyridin-2-yl]-3-(2-methyl-5-pyridin-2-ylpyrazol-3-yl)oxybenzonitrile] | < 10 |
| CCNc1cc(Oc2cc(C#N)ccc2-c2ncc(CN)cn2)cc(C)n1 [compound 643, 4-[5-(aminomethyl)pyrimidin-2-yl]-3-[2-(ethylamino)-6-methylpyridin-4-yl]oxybenzonitrile] | 10 to 1000 |
| Cc1cc(Oc2cc(C#N)ccc2-c2ncc(CN)cn2)cc(NC(C)C)n1 [compound 644, 4-[5-(aminomethyl)pyrimidin-2-yl]-3-[2-methyl-6-(propan-2-ylamino)pyridin-4-yl]oxybenzonitrile] | < 10 |
| Cc1cc(Oc2cc(C#N)ccc2-c2ccc(CN)cn2)cc(NC2CC2)n1 [compound 645, 4-[5-(aminomethyl)pyridin-2-yl]-3-[2-(cyclopropylamino)-6-methylpyridin-4-yl]oxybenzonitrile] | 10 to 1000 |
| Cc1cc(Oc2cc(C#N)ccc2-c2ncc(CN)cn2)cc(NC2CC2)n1 [compound 646, 4-[5-(aminomethyl)pyrimidin-2-yl]-3-[2-(cyclopropylamino)-6-methylpyridin-4-yl]oxybenzonitrile] | 10 to 1000 |
| Cc1cc(Oc2cc(C#N)ccc2-c2ccc(CN)cn2)cc(NC2CCOCC2)n1 [compound 647, 4-[5-(aminomethyl)pyridin-2-yl]-3-[2-methyl-6-(oxan-4-ylamino)pyridin-4-yl]oxybenzonitrile] | > 1000 |
| Cc1cc(Oc2cc(C#N)ccc2-c2ncc(CN)cn2)cc(NC2CCOCC2)n1 [compound 648, 4-[5-(aminomethyl)pyrimidin-2-yl]-3-[2-methyl-6-(oxan-4-ylamino)pyridin-4-yl]oxybenzonitrile] | > 1000 |
